Experiment [1] deals with T1, tellurite reductase (membrane associated tellurite/tellurate reductase).
T1 construct: native enzyme purified from Triton X-100 solubilised membranes of KR99; 117 kDa heterodimer (62 + 55 kDa, 1:1); MS nearest match GroEL of Blastomonas sp
Kind of experiment: spectrophotometric tellurite reduction at […] nm. Type of experiment: biochemical, Blastomonas ursincola. The settings on record: electron donor; co-substrate tellurite; pH 7.0, 28 °C.

Experiment [2] has the same test system. Type of experiment: biochemical, Blastomonas ursincola. The settings on record: co-substrate NADH (25 µL of 5 mM stock as printed), Tris HCl pH 7.0, 28 °C.
Experiment [3] addresses tellurite reductase 55 kDa subunit of Erythromonas ursincola, strain KR99 (Erythromonas ursincola, strain KR99 (endogenous)). The experiment is described as follows: SEC; endogenous enzyme co-purified from solubilised membranes; single band on 5% native PAGE; native mass by Superdex S-200 gel filtration in 20 mM Tris HCl pH 8.0; subunits by SDS-PAGE (12%) after boiling in 1% SDS with 2-mercaptoethanol. On the technique in general: In gel filtration, larger molecules generally elute earlier.

Like-named read-outs stand apart in the source and are kept apart here.

The Km is the substrate concentration at which the rate is half of its maximum. For the compound `NC(=O)C1=CN([C@@H]2O[C@H](COP(=O)(O)OP(=O)(O)OC[C@H]3O[C@@H](n4cnc5c(N)ncnc54)[C@H](O)[C@@H]3O)[C@@H](O)[C@H]2O)C=CC1` [NADH], in experiment [1], the Km is 81.5 µM. With `O=[Te](=O)(O)O` [tellurate], the Km in experiment [2] (tellurate 0–5 mM) stood at 1440 µM. For `O=[Te](O)O` [tellurite], the Km in experiment [2] (tellurite 0–13 mM) turned out to be 3360 µM. For orientation: stoichiometry N means a count of units in the complex or per binding partner. Compound “tellurite reductase 62 kDa subunit of Erythromonas ursincola, strain KR99 (natural protein)” displayed a stoichiometry N in experiment [3] of 1.

These data come from article PMC5488091, “Tellurite and Tellurate Reduction by the Aerobic Anoxygenic Phototroph Erythromonas ursincola, Strain KR99 Is Carried out by a Novel Membrane Associated Enzyme” (Microorganisms, 2017).
